Data reported in patent US20250115598A1 (Anaxis Pharma Pty Ltd, priority 2021, published 2025).
Like-named read-outs stand apart in the source and are kept apart here.

What was measured:
[1] = target: human MLKL (full length) (Homo sapiens (Human), UniProt Q8NB16); test: KINOMEscan binding assay, human MLKL (full length)
Method in brief: (§1)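 Binding constants were derived by fitting qPCR-quantified bead-retained kinase against compound concentration to the Hill equation, slope set at −1. Compound series were 3-fold over 11 points with 1% DMSO; most top concentrations were 30,000 nM. Kinases were T7-phage-tagged or HEK-293-produced with DNA tags.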

[2] = target: mouse MLKL (full length) (Mus musculus (Mouse), UniProt Q9D2Y4); test: KINOMEscan binding assay, mouse MLKL (full length); settings: Table 22
Method: Binding affinity of the test compounds for human MLKL (full length), mouse MLKL (full length), human RIPK1 and human RIPK3 was determined using the KINOMEscan™ technology developed by DiscoverX (USA; http://www.discoverx.com). The assay was conducted according to manufacturer instructions.
Kinase assays. For most assays, kinase-tagged T7 phage strains were grown in parallel in 24-well blocks in an E. coli host derived from the BL21 strain. E. coli were grown to log-phase and infected with T7 phage from a frozen stock (multiplicity of infection=0.4) and incubated with shaking at 32° C. until lysis (90-150 minutes). The lysates were centrifuged (6,000×g) and filtered (0.2 μm) to remove cell debris. The remaining kinases were produced in HEK-293 cells and subsequently tagged with DNA for qPCR detection. […] The liganded beads were blocked with excess biotin and washed with blocking buffer (SeaBlock (Pierce), 1% BSA, 0.05% Tween 20, 1 mM DTT) to remove unbound ligand and to reduce non-specific phage binding. […] All reactions were performed in polypropylene 384-well plates in a final volume of 20 μL. […] The kinase concentration in the eluates was measured by qPCR.
An 11-point 3-fold serial dilution of each test compound was prepared in 100% DMSO at 100× final test concentration and subsequently diluted to 1× in the assay (final DMSO concentration=1%). Most Kos were determined using a compound top concentration=30,000 nM.
KD for each test compound was calculated with a standard dose-response curve using the Hill equation (equation (1)): […]
The Hill Slope was set to −1.
Curves were fitted using a non-linear least square fit with the Levenberg-Marquardt algorithm.

[3] = target: human RIPK1 (Homo sapiens (Human), UniProt Q13546); test: KINOMEscan binding assay, human RIPK1; settings: Table 21
Method in brief: as §1

[4] = target: human RIPK3 (Homo sapiens (Human), UniProt Q9Y572); test: KINOMEscan binding assay, human RIPK3; settings: Table 21
Method in brief: as §1

[5] = test system: U937 human histiocytic leukemia cell line; test: Cellular assay: inhibition of TSQ induced necroptosis, CellTitre-Glo viability; settings: Homo sapiens, U-937; U937 cells, 48 hours, TSQ cocktail, Table 26; read-out: Inhibition of TSQ-induced necroptosis (IC50 cell-based assay)
Method in brief: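 U937 cells (20,000/well) treated with compound (10-point, 36 μM top, 1:3) plus TSQ cocktail (hTNF-Fc 100 ng/ml, Smac mimetic 500 nM, Q-VD-OPh 10 μM), 48 h at 37° C., 0.3% DMSO. Viability by CellTitre-Glo ATP luminescence; counter screen without TSQ measured compound-only effects on viability.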

[6] = test system: U937 cells; test: Counter screen: cell viability without the TSQ cocktail (off-target effect); parameters: species or system human; settings: Homo sapiens, U-937, Table 26, read-out: Off-target effect (IC50 cell-based assay)
Method in brief: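 U937 cells (20000/well, HT-RPMI + 7.4% FBS) treated with compound (10-point 1:3 dilution from 36 μM, 0.3% DMSO) without the TSQ cocktail for 48 h at 37 °C/5% CO2. Viability read as ATP by CellTiter-Glo luminescence, flagging off-target cytotoxicity.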

[7] = target: endogenous MLKL in U937 (Homo sapiens (Human), UniProt Q8NB16); test: Degradation assay: endogenous MLKL in U937 (western blot); settings: U937, 24 h incubation, read-out: Degradation of endogenous MLKL in U937 (DC50 cell-based assay)
Method in brief: (§2)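 MDF (seeded the day before) or U937 cells were treated 24 h at 37 °C, 10% CO2 with compound at 10, 2, 0.4, 0.08 and 0.016 μM final. Endogenous MLKL was quantified by western blot (anti-MLKL 3H1), normalized to GAPDH. Percent degradation was taken relative to DMSO control.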

[8] = target: endogenous MLKL in MDF (Mus musculus (Mouse), UniProt Q9D2Y4); test: Degradation assay: endogenous MLKL in MDF (western blot); settings: MDF cells, 24 h incubation with compound, MLKL adjusted for loading with GAPDH, normalized to DMSO only control, read-out: Degradation of endogenous MLKL in MDF (DC50 cell-based assay)
Method in brief: as §2

[9] = test system: Immortalised Mouse Dermal Fibroblasts (MDFs); test: Cellular assay: inhibition of TSI induced necroptosis, CellTitre-Glo viability; settings: Mus musculus, Fibroblast; MDF, 3 hours TSI cocktail, Table 24; read-out: Inhibition of TSI-induced necroptosis (IC50 cell-based assay) in MDF
Method in brief: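 Immortalised mouse dermal fibroblasts (2200 cells/well) pretreated 30 min with compound, 10-point 1:3 series from 36 μM, 0.3% DMSO. Then 3 h at 37° C. with TNF (100 ng/ml), Smac mimetic (500 nM) and IDN-6556 (10 μM). CellTiter-Glo luminescence normalised to DMSO (100%) and DMSO+TSI (0%); IC50 from 4-parameter logistic fit.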

[10] = KINOMEscan, Table 21, read-out: Human MLKL (full-length) (KD)
[11] = hMLKL, Table 25, read-out: MLKL (KD)

Chain of human RIPK3 (Q9Y572 whole entry): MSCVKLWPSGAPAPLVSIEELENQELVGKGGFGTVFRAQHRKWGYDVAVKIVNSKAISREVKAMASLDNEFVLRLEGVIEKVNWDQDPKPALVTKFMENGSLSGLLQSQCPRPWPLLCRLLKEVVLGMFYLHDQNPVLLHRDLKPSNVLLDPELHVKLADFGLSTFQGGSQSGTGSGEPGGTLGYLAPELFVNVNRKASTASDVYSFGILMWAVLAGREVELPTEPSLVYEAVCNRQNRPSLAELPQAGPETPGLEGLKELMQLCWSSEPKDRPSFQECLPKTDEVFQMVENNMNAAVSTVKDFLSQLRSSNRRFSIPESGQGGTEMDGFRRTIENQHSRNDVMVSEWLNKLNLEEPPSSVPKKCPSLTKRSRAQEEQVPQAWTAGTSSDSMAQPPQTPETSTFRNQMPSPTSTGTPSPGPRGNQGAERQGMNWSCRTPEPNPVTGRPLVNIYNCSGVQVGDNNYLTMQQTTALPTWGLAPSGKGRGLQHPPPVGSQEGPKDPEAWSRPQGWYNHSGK
Chain of human MLKL (full length) (Q8NB16 whole entry): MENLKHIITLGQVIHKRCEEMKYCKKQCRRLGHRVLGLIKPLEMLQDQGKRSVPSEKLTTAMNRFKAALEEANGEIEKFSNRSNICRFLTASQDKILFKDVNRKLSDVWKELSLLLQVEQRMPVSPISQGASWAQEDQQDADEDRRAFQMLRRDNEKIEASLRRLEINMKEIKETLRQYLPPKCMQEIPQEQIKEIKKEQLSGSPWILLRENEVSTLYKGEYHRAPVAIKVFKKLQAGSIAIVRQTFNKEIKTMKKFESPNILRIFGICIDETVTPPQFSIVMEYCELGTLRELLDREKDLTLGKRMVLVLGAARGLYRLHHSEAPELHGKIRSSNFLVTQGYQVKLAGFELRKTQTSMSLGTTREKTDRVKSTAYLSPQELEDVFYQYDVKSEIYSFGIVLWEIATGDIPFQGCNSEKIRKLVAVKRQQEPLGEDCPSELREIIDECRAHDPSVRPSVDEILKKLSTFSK
Chain of endogenous MLKL in U937 (Q8NB16 whole entry): as above
Chain of human RIPK1 (Q13546 whole entry): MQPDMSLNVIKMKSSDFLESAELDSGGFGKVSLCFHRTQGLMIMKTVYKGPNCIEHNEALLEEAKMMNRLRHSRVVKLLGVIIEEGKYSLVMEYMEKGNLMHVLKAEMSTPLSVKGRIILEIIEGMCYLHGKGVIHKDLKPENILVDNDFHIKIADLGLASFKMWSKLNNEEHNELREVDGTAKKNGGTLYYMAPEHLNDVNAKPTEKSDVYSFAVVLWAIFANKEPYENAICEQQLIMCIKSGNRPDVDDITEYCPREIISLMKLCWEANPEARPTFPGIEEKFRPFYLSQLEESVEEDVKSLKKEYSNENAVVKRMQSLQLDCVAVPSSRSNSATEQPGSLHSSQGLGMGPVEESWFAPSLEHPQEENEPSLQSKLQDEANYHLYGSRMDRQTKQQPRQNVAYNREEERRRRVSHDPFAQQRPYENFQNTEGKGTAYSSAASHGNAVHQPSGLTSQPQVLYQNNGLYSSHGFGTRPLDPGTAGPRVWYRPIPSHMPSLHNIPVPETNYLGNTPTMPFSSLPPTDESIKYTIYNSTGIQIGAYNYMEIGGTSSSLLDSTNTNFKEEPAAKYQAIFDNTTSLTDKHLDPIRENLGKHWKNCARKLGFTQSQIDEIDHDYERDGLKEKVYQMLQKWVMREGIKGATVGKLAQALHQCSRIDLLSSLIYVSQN
Chain of mouse MLKL (full length) (Q9D2Y4 whole entry): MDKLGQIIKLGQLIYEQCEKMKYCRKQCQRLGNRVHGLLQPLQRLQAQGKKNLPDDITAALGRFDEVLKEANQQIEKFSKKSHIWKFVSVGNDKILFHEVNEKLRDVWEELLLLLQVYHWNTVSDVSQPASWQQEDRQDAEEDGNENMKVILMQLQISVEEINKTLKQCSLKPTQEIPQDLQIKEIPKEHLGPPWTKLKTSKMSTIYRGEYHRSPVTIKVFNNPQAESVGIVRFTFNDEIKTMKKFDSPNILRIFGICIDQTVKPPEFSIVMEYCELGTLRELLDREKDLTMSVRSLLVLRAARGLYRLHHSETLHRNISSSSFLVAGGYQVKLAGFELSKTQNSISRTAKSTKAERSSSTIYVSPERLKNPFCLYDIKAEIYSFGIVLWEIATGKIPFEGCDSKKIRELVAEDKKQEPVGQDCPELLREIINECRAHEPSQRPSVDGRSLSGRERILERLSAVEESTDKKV
Chain of endogenous MLKL in MDF (Q9D2Y4 whole entry): as above

Kd [1, 10] [nM]	Kd [2] [nM]	Kd [3] [nM]	Kd [4] [nM]	Kd [1, 11] [nM]	DC50 [7] [nM]	DC50 [8] [nM]	Structure (SMILES)	IC50 [5] [nM]	IC50 [6] [nM]	IC50 [9] [nM]
< 1	< 1	–	–	–	–	–	Nc1ncc(-c2cnn(C3CCOCC3)c2)c2occ(-c3ccc(NS(=O)(=O)C(F)F)c(OCc4ccc(F)cc4)c3)c12 [Compound 5, N-(4-(4-amino-7-(1-(tetrahydro-2H-pyran-4-yl)-1H-pyrazol-4-yl)furo[3,2-c]pyridin-3-yl)-2-((4-fluorobenzyl)oxy)phenyl)-1,1-difluoro-methanesulfonamide]	–	–	–
< 1	< 1	> 10000	> 10000	–	–	–	C[C@H](Oc1cc(-c2coc3c(-c4cnn(C)c4)cnc(N)c23)ccc1NS(=O)(=O)C(F)F)c1ccc(F)cc1 [Compound 8, (S)-N-(4-(4-amino-7-(1-methyl-1H-pyrazol-4-yl)furo[3,2-c]pyridin-3-yl)-2-(1-(4-fluorophenyl)eth-oxy)phenyl)-1,1-difluoromethane-sulfonamide]	–	–	–
< 1	< 1	> 10000	> 10000	–	–	–	C[C@H](Oc1cc(-c2nn(C)c3c(-c4cnn(CCO)c4)cnc(N)c23)ccc1NS(=O)(=O)C(F)F)c1ccc(F)cc1 [Compound 15, (S)-N-(4-(4-amino-7-(1-(2-hydroxyethyl)-1H-pyrazol-4-yl)-1-methyl-1H-pyrazolo[4,3-c]pyridin-3-yl)-2-(1-(4-fluorophenyl)ethoxy)phenyl)-1,1-difluoromethanesulfonamide]	–	–	–
< 1	< 1	> 10000	> 10000	–	–	–	C[C@H](Oc1cc(-c2nn(C)c3c(-c4cnn(C)c4)cnc(N)c23)ccc1NS(=O)(=O)C(F)F)c1ccc(F)cc1 [Compound 20, (S)-N-(4-(4-amino-1-methyl-7-(1-methyl-1H-pyrazol-4-yl)-1H-pyrazolo[4,3-c]pyridin-3-yl)-2-(1-(4-fluorophenyl)ethoxy)phenyl)-1,1-difluoromethanesulfonamide]	–	–	–
–	< 1	> 10000	> 10000	–	–	–	C[C@H](Oc1cc(-c2coc3c(-c4cnn(C5CCOCC5)c4)cnc(N)c23)ccc1NS(=O)(=O)C(F)F)c1ccc(F)cc1 [Compound 7, (S)-N-(4-(4-amino-7-(1-(tetrahydro-2H-pyran-4-yl)-1H-pyrazol-4-yl)furo[3,2-c]pyridin-3-yl)-2-(1-(4-fluoro-phenyl)eth-oxy)phenyl)-1,1-difluoro-methanesulfonamide]	–	–	–
–	< 1	> 10000	> 10000	–	–	–	C[C@H](Oc1cc(-c2nn(C)c3c(-c4cnn(CCN5CCN(C)CC5)c4)cnc(N)c23)ccc1NS(=O)(=O)C(F)F)c1ccc(F)cc1 [Compound 60, (S)-N-(4-(4-amino-1-methyl-7-(1-(2-(4-metyhlpiperazin-1-yl)ethyl)-1H-pyrazol-4-yl)-1H-pyrazolo[4,3-c]pyridin-3-yl)-2-(1-(4-fluorophenyl)ethoxy)phenyl)-1,1-difluoromethanesulfonamide]	–	–	–
–	–	–	–	< 10	1000 to 10000	–	Cc1ncsc1-c1ccc(CNC(=O)[C@@H]2C[C@@H](O)CN2C(=O)[C@@H](NC(=O)CCN2CC(n3cc(-c4cnc(N)c5c(-c6ccc(NS(=O)(=O)C(F)F)c(O[C@@H](C)c7ccc(F)cc7)c6)nn(C)c45)cn3)C2)C(C)(C)C)cc1 [Compound 1010, (2S,4R)-1-[(2S)-2-{3-[3-(4-{4-amino-3-[4-(difluoromethanesulfonamido)-3-[(1S)-1-(4-fluorophenyl)ethoxy]phenyl]-1-methyl-1H-pyrazolo[4,3-c]pyridin-7-yl}-1H-pyrazol-1-yl)azetidin-1-yl]propanamido}-3,3-dimethylbutanoyl]-4-hydroxy-N-{[4-(4-methyl-1,3-thiazol-5-yl)phenyl]methyl}pyrrolidine-2-carboxamide]	1000 to 10000	> 10000	–
< 1	< 1	> 10000	> 10000	–	–	–	Cn1nc(-c2ccc(NS(=O)(=O)C(F)F)c(OCc3ccc(F)cc3)c2)c2c(N)ncc(-c3cnn(C4CCOCC4)c3)c21 [Compound 13, N-(4-(4-amino-1-methyl-7-(1-(tetrahydro-2H-pyran-4-yl)-1H-pyrazol-4-yl)-1H-pyrazolo[4,3-c]pyridin-3-yl)-2-((4-fluoro-benzyl)oxy)phenyl)-1,1-difluoromethane-sulfonamide]	–	–	–
–	–	–	–	< 10	1000 to 10000	–	CCS(=O)(=O)Nc1ccc(-c2n[nH]c3c(-c4cnn(CCCCCCC(=O)N[C@H](C(=O)N5C[C@H](O)C[C@H]5C(=O)NCc5ccc(-c6scnc6C)cc5)C(C)(C)C)c4)cnc(N)c23)cc1OCc1ccc(F)cc1 [Compound 1003, (2S,4R)-1-[(2S)-2-{7-[4-(4-amino-3-{4-ethanesulfonamido-3-[(4-fluorophenyl)methoxy]phenyl}-1H-pyrazolo[4,3-c]pyridin-7-yl)-1H-pyrazol-1-yl]heptanamido}-3,3-dimethylbutanoyl]-4-hydroxy-N-{[4-(4-methyl-1,3-thiazol-5-yl)phenyl]methyl}pyrrolidine-2-carboxamide]	> 10000	> 10000	–
–	–	–	–	< 10	< 1000	< 1000	Cc1ncsc1-c1ccc(CNC(=O)[C@@H]2C[C@@H](O)CN2C(=O)[C@@H](NC(=O)CCCCCCn2cc(-c3cnc(N)c4c(-c5ccc(NS(=O)(=O)C(F)F)cc5)nn(C)c34)cn2)C(C)(C)C)cc1 [Compound 1022, (2S,4R)-1-[(2S)-2-[7-(4-{4-amino-3-[4-(difluoromethanesulfonamido)phenyl]-1-methyl-1H-pyrazolo[4,3-c]pyridin-7-yl}-1H-pyrazol-1-yl)heptanamido]-3,3-dimethylbutanoyl]-4-hydroxy-N-{[4-(4-methyl-1,3-thiazol-5-yl)phenyl]methyl}pyrrolidine-2-carboxamide]	< 1000	> 10000	–
–	–	–	–	< 10	1000 to 10000	–	Cc1ncsc1-c1ccc(CNC(=O)[C@@H]2C[C@@H](O)CN2C(=O)[C@@H](NC(=O)CCN2CCC(n3cc(-c4cnc(N)c5c(-c6ccc(NS(=O)(=O)C(F)F)c(O[C@@H](C)c7ccc(F)cc7)c6)nn(C)c45)cn3)C2)C(C)(C)C)cc1 (stereo partly drawn) [Compound 1012, (2S,4R)-1-[(2S)-2-{3-[3-(4-{4-amino-3-[4-(difluoromethanesulfonamido)-3-[(1S)-1-(4-fluorophenyl)ethoxy]phenyl]-1-methyl-1H-pyrazolo[4,3-c]pyridin-7-yl}-1H-pyrazol-1-yl)pyrrolidin-1-yl]propanamido}-3,3-dimethylbutanoyl]-4-hydroxy-N-{[4-(4-methyl-1,3-thiazol-5-yl)phenyl]methyl}pyrrolidine-2-carboxamide]	1000 to 10000	> 10000	–
< 1	< 1	–	–	–	–	–	C[C@H](Oc1cc(-c2nn(C)c3c(-c4cnn(C5CCOCC5)c4)cnc(N)c23)ccc1NS(=O)(=O)C(F)F)c1ccc(F)cc1 [Compound 19]	–	–	< 1000
